Values of other authors as cited in US6756047B2, “Method and compositions for treating persistent pulmonary hypertension using aralkyl ester soft drugs” (The University of Toledo, priority 2000, dated 2004).

Tests used:
[1] = eye examination use
[2] = long duration of action; used clinically

Row | SMILES | duration [1] | half-life (duration of action) [2]
1 | CN1[C@@H]2CC[C@H]1C[C@@H](OC(=O)C(CO)c1ccccc1)C2 (some centres unmarked) [Atropine, atropine] | several hour | –
2 | CC(C)NCC(O)COc1cccc2ccccc12 (centres unmarked) [Structure 1, propranolol] | – | several hour
